Assays:
[1] = Voltage sensitivity: fluorescence change for a 100 millivolt step in membrane potential
[2] = One-photon absorption spectra of dyes (λmax abs, logε); assay type: physicochemical
Description: (§1) Similar methods were used to prepare additional dyes.

[3] = Fluorescence emission spectra and fluorescence quantum yield (FQY) of dyes; assay type: physicochemical
Description: as §1

[4] = Photobleaching rate under white light from a xenon lamp; assay type: physicochemical; settings: single exponential decay fit of absorbance
Procedure, shortened: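 Photostability was scored as a photobleaching rate, expressed relative to the unsubstituted parent dye. Dyes were irradiated with white light from a xenon lamp while absorbance was monitored. The rate was derived by fitting a single exponential decay to the absorbance over time.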

| Structure (SMILES) | logε ([2]; Ethanol) | λmax abs ([2]; Ethanol) | logε ([2]; Lipid vesicles) | λmax abs ([2]; Lipid vesicles) | logε ([2]; PBS buffer) | λmax abs ([2]; PBS buffer) | FQY ([3]; Ethanol) | λmax em ([3]; Ethanol) | FQY ([3]; Lipid vesicles) | λmax em ([3]; Lipid vesicles) | FQY ([3]; PBS buffer) | Photobleaching rate (Relative to unsubstituted dye) [4] | further results |
| --- | --- | --- | --- | --- | --- | --- | --- | --- | --- | --- | --- | --- | --- |
| CCCCN(CCCC)c1ccc2cc(/C=C(\F)c3cc[n+](CCC[N+](CC)(CC)CC)cc3)ccc2c1 [PY3006] | 4.5 | 539 nm | 4.4 | 488 nm | 4.2 | 493 nm | 0.001 | 720 nm | 0.16 | 636 nm | — (FQY < 0.001) | 0.63 | Voltage sensitivity ΔF/F per 100 mV ([1]; Ex/Em 578/>695 nm): 12% 578/ >695 |
| CCCCN(CCCC)c1ccc2cc(/C=C/c3cc[n+](CCC[N+](CC)(CC)CC)cc3F)ccc2c1 [PY3128] | 4.4 | 545 nm | 4.3 | 495 nm | 4.2 | 506 nm | 0.002 | 720 nm | 0.26 | 632 nm | — (FQY < 0.001) | 0.63 | Voltage sensitivity ΔF/F per 100 mV ([1]; Ex/Em 590/>695 nm): 6% 590/ >695 |
| CCCCN(CCCC)c1ccc2cc(/C=C/c3cc[n+](CCC[N+](CC)(CC)CC)cc3)ccc2c1F [PY3174] | 4.4 | 481 nm | 4.3 | 444 nm | 4.2 | 401 nm | 0.007 | 704 nm | 0.25 | 610 nm | 0.002 | 0.83 | Voltage sensitivity ΔF/F per 100 mV ([1]; Ex/Em 545/>695 nm): 6% 545/ >695; λmax em ([3]; PBS buffer): 666 nm |
| CCCCN(CCCC)c1ccc2cc(/C=C/c3cc[n+](CCC[N+](CC)(CC)CC)cc3F)ccc2c1F [PY3179] | 4.3 | 509 nm | 4.3 | 465 nm | 4.1 | 414 nm | 0.003 | 720 nm | 0.22 | 632 nm | — (FQY < 0.001) | 0.91 | Voltage sensitivity ΔF/F per 100 mV ([1]; Ex/Em 572/>695 nm): 18% 572/ >695 |
| CCCCN(CCCC)c1ccc2cc(/C=C/c3c(F)c[n+](CCC[N+](CC)(CC)CC)cc3F)ccc2c1 [PY3184] | 4.6 | 569 nm | 4.3 | 511 nm | 4.2 | 530 nm | 0.004 | 658 nm | 0.18 | 646 nm | — (FQY < 0.001) | 1.56 | Voltage sensitivity ΔF/F per 100 mV ([1]; Ex/Em 610/>695 nm): 11% 610/ >695 |
| CCCCN(CCCC)c1ccc2cc(/C=C/c3c(F)c[n+](CCC[N+](CC)(CC)CC)c4ccccc34)ccc2c1 [PY3304] | 4.4 | 617 nm | 4.2 | 547 nm | 4.0 | 565 nm | 0.001 | 825 nm | 0.03 | 686 nm | — (FQY < 0.001) | 5.26 | Voltage sensitivity ΔF/F per 100 mV ([1]; Ex/Em 645/>745 nm): 12% 645/ >745 |
| CCCCN(CCCC)c1ccc2cc(/C=C(\F)c3cc[n+](CCC[N+](CC)(CC)CC)cc3)ccc2c1F [PY4038] | 4.4 | 497 nm | 4.3 | 464 nm | 4.0 | 409 nm | 0.001 | 760 nm | 0.26 | 643 nm | — (FQY < 0.001) | 0.62 | Voltage sensitivity ΔF/F per 100 mV ([1]; Ex/Em 578/>695 nm): 7% 578/ >695 |
| CCCCN(CCCC)c1ccc2cc(/C=C/c3cc[n+](CCC[N+](CC)(CC)CC)cc3)ccc2c1C(F)(F)F [PY4093] | 4.6 | 449 nm | 4.5 | 418 nm | 4.3 | 430 nm | 0.046 | 687 nm | 0.35 | 597 nm | 0.005 | 0.95 | Voltage sensitivity ΔF/F per 100 mV ([1]; Ex/Em 530/>645 nm): 8% 530/ >645; λmax em ([3]; PBS buffer): 715 nm |
| CCCCN(CCCC)c1ccc2cc(/C=C(\F)c3cc[n+](CCC[N+](CC)(CC)CC)cc3)ccc2c1C(F)(F)F [PY4125] | 4.4 | 453 nm | 4.4 | 422 nm | 4.2 | 395 nm | 0.006 | 694 nm | 0.30 | 590 nm | 0.004 | 1.35 | Voltage sensitivity ΔF/F per 100 mV ([1]; Ex/Em 510/>695 nm): 5% 510/ >695; λmax em ([3]; PBS buffer): 624 nm |
| CCCCN(CCCC)c1ccc2cc(/C=C(\F)c3cc[n+](CCC[N+](CC)(CC)CC)cc3F)ccc2c1F [PY4158] | 4.3 | 510 nm | 4.2 | 470 nm | 4.0 | 408 nm | 0.003 | 845 nm | 0.23 | 651 nm | — (FQY < 0.001) | 0.89 | Voltage sensitivity ΔF/F per 100 mV ([1]; Ex/Em 580/>695 nm): 7% 580/ >695 |
| CCCCN(CCCC)c1ccc2cc(/C=C(\F)c3cc[n+](CCC[N+](CC)(CC)CC)cc3F)ccc2c1 [PY4160] | 4.6 | 558 nm | 4.5 | 500 nm | 4.4 | 513 nm | 0.003 | 710 nm | 0.21 | 660 nm | — (FQY < 0.001) | 0.66 | Voltage sensitivity ΔF/F per 100 mV ([1]; Ex/Em 602/>695 nm): 10% 602/ >695 |
| CCCCN(CCCC)c1ccc2cc(/C=C/c3c(F)c[n+](CCC[N+](CC)(CC)CC)c4ccccc34)ccc2c1 [PY4221] | 4.4 | 627 nm | 4.2 | 553 nm | 4.1 | 537 nm | — (FQY < 0.001) |  | 0.07 | 743 nm | — (FQY < 0.001) |  | Voltage sensitivity ΔF/F per 100 mV ([1]; Ex/Em 670/>780 nm): 6% 670/ >780 |

From patent US8993258B2, “Fluorinated voltage sensitive dyes, preparation thereof, and optical methods of use” (The University of Connecticut, priority 2012, dated 2015)
